{"source": "patent US9999611B2", "about": "“SIRT 1 activator including syringaresinol” (AMOREPACIFIC CORPORATION, priority 2011, dated 2018)", "key": {"[1]": {"test_system": "SIRT1", "test": "SIRT1 expression promoting effect in adipocytes, hepatocytes and myocytes (qRT-PCR)", "format": "cell-based, human", "conditions": "24 hours, FIG. 4", "procedure": "The SIRT1 gene expression promoting effect of syringaresinol in human adipocytes, hepatocytes and myocytes was evaluated as follows.\nHuman adipocytes, hepatocytes and myocytes were purchased from Zen-Bio (Research Triangle Park, N.C., USA) and cultured in a 5% CO2 incubator using respectively an adipocyte medium (OM-AM, Zen-Bio), a hepatocyte medium (HM-2, Zen-Bio) and a myocyte medium (SKM-D, SKM-M, Zen-Bio). The cells were treated with syringaresinol dissolved in DMSO to a concentration of 20, 50 or 100 μM for 24 hours. A negative control group was treated with DMSO corresponding to 1/1000 of the volume of the culture medium.\nThe cells treated with each sample were washed 2 times with cold PBS and RNA was extracted therefrom using the TRIzol reagent (Invitrogen). Then, cDNA was synthesized from the extracted RNA ([…]) using a reverse transcription system (Fermentas, Glen Burnie, Md., USA). The expression pattern of the SIRT1 and GAPDH genes was monitored by qRT-PCR using the synthesized cDNA and predesigned primers and probes. PCR reaction and analysis were carried out using the Rotor-Gene 3000 system (Corbett Research, Sydney, Australia)."}, "[2]": {"test_system": "ACO, CPT1, mCAD", "test": "Expression of fatty acid oxidation-related genes (qRT-PCR)", "format": "cell-based, human", "conditions": "50 μM, vs DMSO control", "procedure": "Human adipocytes, hepatocytes and myocytes were treated with 50 μM syringaresinol and washed with PBS in substantially the same manner as in Test Example 3. RNA was extracted from the cells and cDNA was synthesized therefrom. The change in expression pattern of fatty acid synthesis-related genes such as ADD1/SREBP1c, ACC, FAS, etc. and fatty acid oxidation-related genes such as ACO, CPT1, mCAD, etc. was measured by qRT-PCR."}, "[3]": {"test_system": "Human adipocytes", "test": "Fatty acid oxidation promoting ability (3H2O in medium), adipocytes", "format": "cell-based", "conditions": "50 μM, vs non-treated group, FIG. 11", "procedure": "(§1) Human adipocytes, hepatocytes and myocytes were treated with 50 μM syringaresinol in substantially the same manner as in Test Example 3. The cells were washed with PBS and cultured for a day in a medium for fatty acid oxidation analysis. The medium was recovered and the amount of ^3H2O was measured."}, "[4]": {"test_system": "Human myocytes", "test": "Fatty acid oxidation promoting ability (3H2O in medium), myocytes", "format": "cell-based", "conditions": "50 μM, vs non-treated group, FIG. 11", "procedure": "as §1"}, "[5]": {"test_system": "PGC-1β", "test": "PGC-1β mRNA expression promoting effect (qRT-PCR)", "format": "cell-based, human", "conditions": "50 μM, vs DMSO control, FIG. 13", "procedure": "Human adipocytes, hepatocytes and myocytes were treated with 50 μM syringaresinol in substantially the same manner as in Test Example 3 and washed with PBS. Then, RNA and cDNA were sequentially extracted therefrom. The mRNA expression of the energy metabolism-related genes PGC-1α and PGC-1β was analyzed by qRT-PCR. A result of comparing the expression of PGC-1α and PGC-1β with a control group treated only with DMSO is shown in FIG. 12 and FIG. 13, respectively."}, "[6]": {"test_system": "aged retinal cells (ARPE-19)", "test": "Mitochondrial function recovering effect in aged retinal cells: reactive oxygen species production (H2DCFDA, flow cytometer)", "format": "cell-based, human", "conditions": "compared to cells treated only with DMSO, FIG. 16", "procedure": "The aging of retinal cells was induced while treating with 50 or 100 μM syringaresinol or with DMSO as a negative control, in substantially the same manner as in Test Example 7. For evaluation of mitochondrial function recovering effect, the level of energy (ATP) and reactive oxygen species production in retinal cells was investigated. The energy production was determined by recovering the aged cells after washing with PBS and then with hot water and measuring luminescence using the ATP determination kit (Molecular Probes, Eugene, Oreg., USA) and the Tecan system (Infinite M200, Tecan, Austria). The reactive oxygen species production was measured using a flow cytometer (BD Biosciences, San Jose, Calif., USA) after washing the aged cells with PBS and staining them with the reactive oxygen species detection reagent (H2DCFDA, Invitrogen, Carlsbad, Calif., USA)."}, "[7]": {"test_system": "human PBMCs", "test": "Reactive oxygen species production inhibiting effect in LPS-treated human PBMCs (H2-DCFDA)", "format": "cell-based", "conditions": "human PBMCs pretreated with 20, 50 or 100 μM, then 10 ng/mL LPS; compared to cells treated only with LPS; FIG. 18", "procedure": "After pretreating human PBMCs with 20, 50 or 100 μM syringaresinol in substantially the same manner as in Test Example 10, followed by washing with PBS, inflammatory response was induced by treating with 10 ng/mL lipopolysaccharide (LPS). After treating the cells with H2-DCFDA (Invitrogen), which is a fluorescent substance capable of detecting reactive oxygen species, the amount of fluorescent substance was measured using a multiplate reader (Infinite M200; Tecan, Mannedorf, Switzerland)."}, "[8]": {"test_system": "IL-1b, IL-6. iNOS, COX2, MMP9 and CCR2", "test": "Inhibition of expression of inflammation-related genes in LPS-treated human PBMCs", "format": "cell-based", "conditions": "human PBMCs pretreated with 50 μM, then 10 ng/mL LPS; compared to cells treated only with LPS; FIG. 19", "procedure": "After pretreating human PBMCs with 50 μM syringaresinol, inflammatory response was induced by treating with 10 ng/mL LPS, in substantially the same manner as in Test Example 11. The cells treated with each sample were washed with PBS and RNA and cDNA were extracted and synthesized therefrom. Then, the expression pattern of the inflammatory response-related genes IL-1b, IL-6. iNOS, COX2, MMP9 and CCR2 was monitored using the synthesized cDNA and predesigned primers."}, "[9]": {"test_system": "PGC-1α and PGC-1β, IL-10 and arginase I", "test": "Change in human PBMC type: expression of type 2 immune cell-related genes", "format": "cell-based", "conditions": "human PBMCs, 20, 50 or 100 μM, vs DMSO; FIG. 21", "procedure": "After treating human PBMCs with 20, 50 or 100 μM syringaresinol or DMSO in substantially the same manner as in Test Example 11, RNA was extracted from the PBMCs and cDNA was synthesized therefrom in order to measure the expression of type 2 immune cell-related genes. The expression pattern of the transcriptional regulators necessary for inducement of differentiation to type 2 immune cells, such as PGC-1α and PGC-1β, and the genes mainly expressed in type 2 immune cells, such as IL-10 and arginase I, was measured using the synthesized cDNA."}}}
{"smiles": "COc1cc(C2OCC3C(c4cc(OC)c(O)c(OC)c4)OCC23)cc(OC)c1O", "note": "(stereo not shown) [syringaresinol]", "values": [{"measurement": "SIRT1 expression", "setting": "[1]; human adipocytes, 20, 50 or 100 μM", "result": "increased SIRT1 expression"}, {"measurement": "SIRT1 expression", "setting": "[1]; human hepatocytes, 20, 50 or 100 μM", "result": "increased SIRT1 expression"}, {"measurement": "SIRT1 expression", "setting": "[1]; human myocytes, 20, 50 or 100 μM", "result": "increased SIRT1 expression"}, {"measurement": "expression of fatty acid oxidation promoting genes", "setting": "[2]; human adipocytes, FIG. 8", "result": "increased the expression of fatty acid oxidation promoting genes"}, {"measurement": "expression of fatty acid oxidation promoting genes", "setting": "[2]; human hepatocytes, FIG. 9", "result": "increased the expression of fatty acid oxidation promoting genes"}, {"measurement": "expression of fatty acid oxidation promoting genes", "setting": "[2]; human myocytes, FIG. 10", "result": "increased the expression of fatty acid oxidation promoting genes"}, {"measurement": "fatty acid oxidation", "setting": "[3]", "result": "increased fatty acid oxidation"}, {"measurement": "fatty acid oxidation", "setting": "[4]", "result": "increased fatty acid oxidation"}, {"measurement": "expression of PGC-1β", "setting": "[5]; human adipocytes", "result": "increased the expression"}, {"measurement": "expression of PGC-1β", "setting": "[5]; human hepatocytes", "result": "increased the expression"}, {"measurement": "expression of PGC-1β", "setting": "[5]; human myocytes", "result": "increased the expression"}, {"measurement": "decreased reactive oxygen species production", "setting": "[6]; 50 μM", "result": "about 7%"}, {"measurement": "decreased reactive oxygen species production", "setting": "[6]; 100 μM", "result": "~11", "unit": "%"}, {"measurement": "decreased reactive oxygen species production", "setting": "[7]", "result": "about 60%"}, {"measurement": "decreased expression of the inflammatory response-related genes", "setting": "[8]", "result": "about 90%"}, {"measurement": "expression of type 2 immune cell-specific marker genes", "setting": "[9]", "result": "significantly increased expression"}]}
